Experimental data as given in the supplement of paper PMC10883282.

Columns and labels:
Experiment in all cases: relative viability vs DMSO control (72 h) (fraction); higher = more viable cells
A204 = test system: A204
How it was run: (§1)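 Plates held 72 h at 37 °C and 5% CO2 contained sarcoma cell lines seeded in 384-well format to reach 80–90% confluence, plus 2.5 µl of serially diluted compound added after 24 h. Source plate concentrations ran from 10 mM to 0.0002 mM, with 0.1% DMSO as vehicle and a 5 µM positive control. Percent growth from ATPLite readings, averaged over up to triplicate wells, gave relative viability. Values were rescaled with 1 as full and 0 as none.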

G401 = test system: G401
How it was run: as §1

HS729 = test system: HS729
How it was run: as §1

HT1080 = test system: HT1080
How it was run: as §1

KHOS-NP = test system: KHOS-NP
How it was run: as §1

MES-SA = test system: MES-SA
How it was run: as §1

SK-LMS-1 = test system: SK-LMS-1
How it was run: as §1

SW1353 = test system: SW1353
How it was run: as §1

SW684 = test system: SW684
How it was run: as §1

SW872 = test system: SW872
How it was run: as §1

SYO-1 = test system: SYO-1
How it was run: as §1

VA-ES-BJ = test system: VA-ES-BJ
How it was run: as §1

COc1cc(OC)c(/C=C/S(=O)(=O)Cc2ccc(OC)c(NCC(=O)O)c2)c(OC)c1 [Rigosertib]
Conditions	relative viability
A204, 0.00017 µM	1.08
A204, 0.00051 µM	1.06
A204, 0.00152 µM	1.08
A204, 0.00457 µM	1.0898
A204, 0.01372 µM	1.09
A204, 0.04115 µM	1.07
A204, 0.1235 µM	1.01
A204, 0.3704 µM	0.672
A204, 1.111 µM	0.398
A204, 3.333 µM	0.319
A204, 10 µM	0.248
G401, 0.00017 µM	1.01
G401, 0.00051 µM	1
G401, 0.00152 µM	0.993
G401, 0.00457 µM	1.02
G401, 0.01372 µM	1.04
G401, 0.04115 µM	1.01
G401, 0.1235 µM	0.983
G401, 0.3704 µM	0.919
G401, 1.111 µM	0.534
G401, 3.333 µM	0.424
G401, 10 µM	0.361
HS729, 0.00017 µM	0.973
HS729, 0.00051 µM	0.989
HS729, 0.00152 µM	0.934
HS729, 0.00457 µM	0.938
HS729, 0.01372 µM	1.02
HS729, 0.04115 µM	0.966
HS729, 0.1235 µM	0.928
HS729, 0.3704 µM	0.85
HS729, 1.111 µM	0.625
HS729, 3.333 µM	0.579
HS729, 10 µM	0.517
HT1080, 0.00017 µM	1.07
HT1080, 0.00051 µM	1.03
HT1080, 0.00152 µM	1.07
HT1080, 0.00457 µM	1.06
HT1080, 0.01372 µM	1.05
HT1080, 0.04115 µM	1.08
HT1080, 0.1235 µM	1.06
HT1080, 0.3704 µM	0.412
HT1080, 1.111 µM	0.0983
HT1080, 3.333 µM	0.0596
HT1080, 10 µM	0.0541
KHOS-NP, 0.00017 µM	1.09
KHOS-NP, 0.00051 µM	1.09
KHOS-NP, 0.00152 µM	1.1
KHOS-NP, 0.00457 µM	1.11
KHOS-NP, 0.01372 µM	1.1
KHOS-NP, 0.04115 µM	1.11
KHOS-NP, 0.1235 µM	1.08
KHOS-NP, 0.3704 µM	0.704
KHOS-NP, 1.111 µM	0.478
KHOS-NP, 3.333 µM	0.414
KHOS-NP, 10 µM	0.357
MES-SA, 0.00017 µM	0.901
MES-SA, 0.00051 µM	0.906
MES-SA, 0.00152 µM	0.911
MES-SA, 0.00457 µM	0.91
MES-SA, 0.01372 µM	0.918
MES-SA, 0.04115 µM	0.932
MES-SA, 0.1235 µM	0.607
MES-SA, 0.3704 µM	0.271
MES-SA, 1.111 µM	0.172
MES-SA, 3.333 µM	0.13
MES-SA, 10 µM	0.13
SK-LMS-1, 0.00017 µM	1.08
SK-LMS-1, 0.00051 µM	1.05
SK-LMS-1, 0.00152 µM	1.05
SK-LMS-1, 0.00457 µM	1.03
SK-LMS-1, 0.01372 µM	1.03
SK-LMS-1, 0.04115 µM	0.912
SK-LMS-1, 0.1235 µM	0.659
SK-LMS-1, 0.3704 µM	0.492
SK-LMS-1, 1.111 µM	0.359
SK-LMS-1, 3.333 µM	0.355
SK-LMS-1, 10 µM	0.325
SW684, 0.00017 µM	1.14
SW684, 0.00051 µM	1.2
SW684, 0.00152 µM	1.15
SW684, 0.00457 µM	1.19
SW684, 0.01372 µM	1.19
SW684, 0.04115 µM	1.15
SW684, 0.1235 µM	1.02
SW684, 0.3704 µM	0.73
SW684, 1.111 µM	0.681
SW684, 3.333 µM	0.713
SW684, 10 µM	0.756
SW872, 0.00017 µM	1.04
SW872, 0.00051 µM	1.05
SW872, 0.00152 µM	1.05
SW872, 0.00457 µM	1.06
SW872, 0.01372 µM	1.045
SW872, 0.04115 µM	1.06
SW872, 0.1235 µM	1.019
SW872, 0.3704 µM	0.927
SW872, 1.111 µM	0.515
SW872, 3.333 µM	0.479
SW872, 10 µM	0.477
SW1353, 0.00017 µM	1
SW1353, 0.00051 µM	1.01
SW1353, 0.00152 µM	0.994
SW1353, 0.00457 µM	0.989
SW1353, 0.01372 µM	0.992
SW1353, 0.04115 µM	0.968
SW1353, 0.1235 µM	0.932
SW1353, 0.3704 µM	0.702
SW1353, 1.111 µM	0.426
SW1353, 3.333 µM	0.428
SW1353, 10 µM	0.429
SYO-1, 0.00017 µM	0.957
SYO-1, 0.00051 µM	0.982
SYO-1, 0.00152 µM	0.96
SYO-1, 0.00457 µM	0.961
SYO-1, 0.01372 µM	0.942
SYO-1, 0.04115 µM	0.966
SYO-1, 0.1235 µM	0.941
SYO-1, 0.3704 µM	0.896
SYO-1, 1.111 µM	0.3561
SYO-1, 3.333 µM	0.287
SYO-1, 10 µM	0.305
VA-ES-BJ, 0.00017 µM	1.05
VA-ES-BJ, 0.00051 µM	1.03
VA-ES-BJ, 0.00152 µM	1.02
VA-ES-BJ, 0.00457 µM	1.03
VA-ES-BJ, 0.01372 µM	1.05
VA-ES-BJ, 0.04115 µM	0.961
VA-ES-BJ, 0.1235 µM	0.772
VA-ES-BJ, 0.3704 µM	0.53
VA-ES-BJ, 1.111 µM	0.43
VA-ES-BJ, 3.333 µM	0.403
VA-ES-BJ, 10 µM	0.2992
